Columns and labels:
[1] = molecular target: Dual specificity tyrosine-phosphorylation-regulated kinase 1A (Homo sapiens) (UniProt Q13627); assay: Inhibition of partial length wild type human DYRK1A expressed in mammalian system assessed as enzyme activity at 1 uM relative to control; set-up: scale not given: the % may be the effect or the level left
[2] = molecular target: Mitogen-activated protein kinase 10 (Homo sapiens) (UniProt P53779); assay: Inhibition of partial length wild type human JNK3 expressed in mammalian system assessed as enzyme activity at 1 uM relative to control; set-up: scale not given: the % may be the effect or the level left
[3] = molecular target: Ephrin type-A receptor 4 (Homo sapiens) (UniProt P54764); assay: Inhibition of partial length wild type human EPHA4 expressed in bacterial system assessed as enzyme activity at 1 uM relative to control; set-up: scale not given: the % may be the effect or the level left
[4] = molecular target: Mitogen-activated protein kinase 1 (Homo sapiens) (UniProt P28482); assay: Inhibition of full length wild type human ERK2 expressed in bacterial system assessed as enzyme activity at 1 uM relative to control; set-up: scale not given: the % may be the effect or the level left
Sequence of Mitogen-activated protein kinase 1 (Homo sapiens) (P28482 whole entry): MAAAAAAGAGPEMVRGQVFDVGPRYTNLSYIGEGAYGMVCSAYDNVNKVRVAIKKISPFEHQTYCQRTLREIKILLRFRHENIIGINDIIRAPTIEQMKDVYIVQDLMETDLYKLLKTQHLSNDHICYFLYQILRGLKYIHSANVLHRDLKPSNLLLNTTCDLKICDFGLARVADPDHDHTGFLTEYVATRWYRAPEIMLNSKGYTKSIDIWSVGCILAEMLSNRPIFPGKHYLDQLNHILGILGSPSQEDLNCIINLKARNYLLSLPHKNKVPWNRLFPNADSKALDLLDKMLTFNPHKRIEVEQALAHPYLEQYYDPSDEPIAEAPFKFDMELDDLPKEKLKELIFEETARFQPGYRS

[5] = molecular target: Tyrosine-protein kinase ABL1 (Homo sapiens) (UniProt P00519); assay: Inhibition of partial length wild type phosphorylated human ABL1 expressed in mammalian system assessed as enzyme activity at 1 uM relative to control; set-up: scale not given: the % may be the effect or the level left
[6] = molecular target: RAC-beta serine/threonine-protein kinase (Homo sapiens) (UniProt P31751); assay: Inhibition of partial length wild type human AKT2 expressed in bacterial system assessed as enzyme activity at 1 uM relative to control; set-up: scale not given: the % may be the effect or the level left
[7] = molecular target: ALK tyrosine kinase receptor (Homo sapiens) (UniProt Q9UM73); assay: Inhibition of partial length wild type human ALK expressed in mammalian system assessed as enzyme activity at 1 uM relative to control; set-up: scale not given: the % may be the effect or the level left
[8] = molecular target: 5'-AMP-activated protein kinase catalytic subunit alpha-1 (Homo sapiens) (UniProt Q13131); assay: Inhibition of partial length wild type human AMPKalpha1 expressed in bacterial system assessed as enzyme activity at 1 uM relative to control; set-up: scale not given: the % may be the effect or the level left
[9] = molecular target: Death-associated protein kinase 1 (Homo sapiens) (UniProt P53355); assay: Inhibition of partial length wild type human DAPK1 expressed in bacterial system assessed as enzyme activity at 1 uM relative to control; set-up: scale not given: the % may be the effect or the level left
[10] = molecular target: Interleukin-1 receptor-associated kinase 4 (Homo sapiens) (UniProt Q9NWZ3); assay: Inhibition of partial length wild type human IRAK4 expressed in mammalian system assessed as enzyme activity at 1 uM relative to control; set-up: scale not given: the % may be the effect or the level left
[11] = molecular target: Serine/threonine-protein kinase MARK1 (Homo sapiens) (UniProt Q9P0L2); assay: Inhibition of partial length wild type human MARK1 expressed in bacterial system assessed as enzyme activity at 1 uM relative to control; set-up: scale not given: the % may be the effect or the level left
[12] = molecular target: Dual specificity mitogen-activated protein kinase kinase 3 (Homo sapiens) (UniProt P46734); assay: Inhibition of full length wild type human MEK3 expressed in mammalian system assessed as enzyme activity at 1 uM relative to control; set-up: scale not given: the % may be the effect or the level left
Sequence of Dual specificity mitogen-activated protein kinase kinase 3 (Homo sapiens) (P46734 whole entry): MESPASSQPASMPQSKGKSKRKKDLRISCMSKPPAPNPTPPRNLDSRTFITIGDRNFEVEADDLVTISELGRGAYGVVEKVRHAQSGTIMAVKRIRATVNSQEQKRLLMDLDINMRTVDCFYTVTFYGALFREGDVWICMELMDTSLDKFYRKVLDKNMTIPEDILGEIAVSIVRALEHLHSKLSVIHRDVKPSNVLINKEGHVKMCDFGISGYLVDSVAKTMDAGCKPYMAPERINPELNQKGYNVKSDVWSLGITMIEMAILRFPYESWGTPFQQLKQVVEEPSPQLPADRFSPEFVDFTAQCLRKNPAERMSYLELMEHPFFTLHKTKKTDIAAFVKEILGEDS

[13] = molecular target: Platelet-derived growth factor receptor beta (Homo sapiens) (UniProt P09619); assay: Inhibition of partial length wild type human PDGFRbeta expressed in bacterial system assessed as enzyme activity at 1 uM relative to control; set-up: scale not given: the % may be the effect or the level left
[14] = molecular target: Serine/threonine-protein kinase D2 (Homo sapiens) (UniProt Q9BZL6); assay: Inhibition of partial length wild type human PRKD2 expressed in bacterial system assessed as enzyme activity at 1 uM relative to control; set-up: scale not given: the % may be the effect or the level left
[15] = molecular target: Serine/threonine-protein kinase 33 (Homo sapiens) (UniProt Q9BYT3); assay: Inhibition of full length wild type human STK33 expressed in bacterial system assessed as enzyme activity at 1 uM relative to control; set-up: scale not given: the % may be the effect or the level left
[16] = molecular target: Serine/threonine-protein kinase TBK1 (Homo sapiens) (UniProt Q9UHD2); assay: Inhibition of full length wild type human TBK1 expressed in mammalian system assessed as enzyme activity at 1 uM relative to control; set-up: scale not given: the % may be the effect or the level left
Sequence of Serine/threonine-protein kinase TBK1 (Homo sapiens) (Q9UHD2 whole entry): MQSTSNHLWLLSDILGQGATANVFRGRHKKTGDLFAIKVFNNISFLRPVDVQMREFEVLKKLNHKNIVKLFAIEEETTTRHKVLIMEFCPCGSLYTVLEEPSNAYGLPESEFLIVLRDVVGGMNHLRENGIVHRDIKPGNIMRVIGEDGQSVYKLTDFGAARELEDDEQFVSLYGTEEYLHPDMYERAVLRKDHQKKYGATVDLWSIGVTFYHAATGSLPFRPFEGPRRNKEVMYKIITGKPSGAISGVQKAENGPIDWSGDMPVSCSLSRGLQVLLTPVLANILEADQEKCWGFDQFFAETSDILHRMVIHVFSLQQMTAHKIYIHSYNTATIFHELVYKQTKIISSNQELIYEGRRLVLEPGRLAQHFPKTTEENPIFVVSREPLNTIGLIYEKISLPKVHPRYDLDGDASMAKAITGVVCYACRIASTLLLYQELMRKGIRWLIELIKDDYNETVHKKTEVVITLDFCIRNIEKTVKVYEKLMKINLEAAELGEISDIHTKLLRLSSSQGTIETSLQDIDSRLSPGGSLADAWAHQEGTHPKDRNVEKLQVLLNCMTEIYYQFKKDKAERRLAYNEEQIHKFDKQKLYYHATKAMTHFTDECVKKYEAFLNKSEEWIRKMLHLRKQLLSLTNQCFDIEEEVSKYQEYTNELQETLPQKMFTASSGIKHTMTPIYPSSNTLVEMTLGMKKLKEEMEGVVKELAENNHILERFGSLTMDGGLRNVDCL

[17] = molecular target: High affinity nerve growth factor receptor (Homo sapiens) (UniProt P04629); assay: Inhibition of partial length wild type human TRKA expressed in mammalian system assessed as enzyme activity at 1 uM relative to control; set-up: scale not given: the % may be the effect or the level left
Sequence of High affinity nerve growth factor receptor (Homo sapiens) (P04629 33-796 limits assumed): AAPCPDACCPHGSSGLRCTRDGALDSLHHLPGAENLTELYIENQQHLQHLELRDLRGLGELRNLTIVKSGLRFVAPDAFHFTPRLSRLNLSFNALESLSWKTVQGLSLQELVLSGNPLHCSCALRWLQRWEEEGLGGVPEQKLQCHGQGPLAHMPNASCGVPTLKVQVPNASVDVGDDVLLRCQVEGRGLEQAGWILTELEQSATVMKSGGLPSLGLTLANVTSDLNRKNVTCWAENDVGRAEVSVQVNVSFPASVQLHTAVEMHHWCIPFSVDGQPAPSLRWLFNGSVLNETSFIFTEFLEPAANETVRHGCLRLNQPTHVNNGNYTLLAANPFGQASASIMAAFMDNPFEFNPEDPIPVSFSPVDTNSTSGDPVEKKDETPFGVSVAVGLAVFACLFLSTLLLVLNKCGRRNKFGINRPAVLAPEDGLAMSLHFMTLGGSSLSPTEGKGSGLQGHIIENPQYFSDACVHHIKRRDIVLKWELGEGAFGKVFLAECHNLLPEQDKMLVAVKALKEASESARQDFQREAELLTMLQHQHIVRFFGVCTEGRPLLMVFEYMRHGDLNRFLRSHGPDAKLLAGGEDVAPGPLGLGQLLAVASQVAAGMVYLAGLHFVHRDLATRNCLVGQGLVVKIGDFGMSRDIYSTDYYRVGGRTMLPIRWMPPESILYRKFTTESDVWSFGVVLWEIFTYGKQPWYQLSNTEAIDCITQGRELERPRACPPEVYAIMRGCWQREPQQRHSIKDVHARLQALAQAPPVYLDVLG

[18] = molecular target: Testis-specific serine/threonine-protein kinase 1 (Homo sapiens) (UniProt Q9BXA7); assay: Inhibition of full length wild type human TSSK1B expressed in bacterial system assessed as enzyme activity at 1 uM relative to control; set-up: scale not given: the % may be the effect or the level left
Sequence of Testis-specific serine/threonine-protein kinase 1 (Homo sapiens) (Q9BXA7 whole entry): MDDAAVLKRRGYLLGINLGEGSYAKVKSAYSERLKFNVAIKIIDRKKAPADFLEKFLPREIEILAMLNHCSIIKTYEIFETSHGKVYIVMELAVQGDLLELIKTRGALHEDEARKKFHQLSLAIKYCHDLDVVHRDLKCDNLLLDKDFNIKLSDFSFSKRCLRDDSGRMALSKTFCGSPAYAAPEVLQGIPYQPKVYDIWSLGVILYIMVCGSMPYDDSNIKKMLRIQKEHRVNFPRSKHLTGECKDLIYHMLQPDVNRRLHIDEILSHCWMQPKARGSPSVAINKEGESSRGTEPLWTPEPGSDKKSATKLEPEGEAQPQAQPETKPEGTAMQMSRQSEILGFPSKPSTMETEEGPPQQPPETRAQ

[19] = molecular target: Serine/threonine-protein kinase B-raf (Homo sapiens, UniProt P15056); assay: Inhibition of wild type B-Raf (unknown origin) assessed as MEK1 phosphorylation using MEK1-Avitag as substrate after 1 hr by HTRF assay
[20] = molecular target: Serine/threonine-protein kinase B-raf (Homo sapiens, UniProt P15056, V600E); assay: Inhibition of B-Raf V600E mutant (unknown origin) assessed as MEK1 phosphorylation using MEK1-Avitag as substrate after 1 hr by HTRF assay
[21] = molecular target: Angiopoietin-1 receptor (Homo sapiens) (UniProt Q02763); assay: Inhibition of partial length wild type human TIE2 expressed in bacterial system assessed as enzyme activity at 1 uM relative to control; set-up: scale not given: the % may be the effect or the level left
Sequence of Angiopoietin-1 receptor (Homo sapiens) (Q02763 whole entry): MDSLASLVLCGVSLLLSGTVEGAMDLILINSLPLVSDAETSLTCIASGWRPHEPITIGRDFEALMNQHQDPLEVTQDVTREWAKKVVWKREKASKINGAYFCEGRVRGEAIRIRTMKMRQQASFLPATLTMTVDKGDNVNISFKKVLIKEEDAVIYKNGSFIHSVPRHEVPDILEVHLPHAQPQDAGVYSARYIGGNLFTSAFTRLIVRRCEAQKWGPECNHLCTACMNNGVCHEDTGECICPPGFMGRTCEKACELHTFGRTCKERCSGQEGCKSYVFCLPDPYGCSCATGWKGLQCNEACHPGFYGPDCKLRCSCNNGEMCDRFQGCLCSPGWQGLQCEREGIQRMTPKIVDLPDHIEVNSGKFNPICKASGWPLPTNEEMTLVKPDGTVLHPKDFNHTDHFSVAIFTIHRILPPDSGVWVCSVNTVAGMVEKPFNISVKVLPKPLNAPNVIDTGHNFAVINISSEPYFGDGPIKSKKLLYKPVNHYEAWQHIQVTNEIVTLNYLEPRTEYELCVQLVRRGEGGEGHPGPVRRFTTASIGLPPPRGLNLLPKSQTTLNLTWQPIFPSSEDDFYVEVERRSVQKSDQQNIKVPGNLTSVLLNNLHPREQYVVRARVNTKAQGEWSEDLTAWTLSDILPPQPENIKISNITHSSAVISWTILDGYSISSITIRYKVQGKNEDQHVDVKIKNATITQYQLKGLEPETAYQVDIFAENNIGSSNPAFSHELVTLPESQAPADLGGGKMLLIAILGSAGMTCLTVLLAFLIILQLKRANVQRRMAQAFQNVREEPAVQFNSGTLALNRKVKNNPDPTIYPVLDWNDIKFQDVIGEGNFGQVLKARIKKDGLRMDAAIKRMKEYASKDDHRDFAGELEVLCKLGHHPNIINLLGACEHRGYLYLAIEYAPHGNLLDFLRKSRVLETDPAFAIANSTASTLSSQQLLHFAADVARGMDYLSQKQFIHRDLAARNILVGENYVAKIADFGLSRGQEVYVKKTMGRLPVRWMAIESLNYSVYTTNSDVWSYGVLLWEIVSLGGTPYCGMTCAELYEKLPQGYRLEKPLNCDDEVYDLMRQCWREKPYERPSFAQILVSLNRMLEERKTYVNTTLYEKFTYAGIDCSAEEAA

[22] = molecular target: Aurora kinase A (Homo sapiens) (UniProt O14965); assay: Inhibition of partial length wild type human AURKA expressed in mammalian system assessed as enzyme activity at 1 uM relative to control; set-up: scale not given: the % may be the effect or the level left
[23] = molecular target: MAP kinase-interacting serine/threonine-protein kinase 1 (Homo sapiens) (UniProt Q9BUB5); assay: Inhibition of full length wild type human MKNK1 expressed in mammalian system assessed as enzyme activity at 1 uM relative to control; set-up: scale not given: the % may be the effect or the level left
Sequence of MAP kinase-interacting serine/threonine-protein kinase 1 (Homo sapiens) (Q9BUB5 whole entry, looked up): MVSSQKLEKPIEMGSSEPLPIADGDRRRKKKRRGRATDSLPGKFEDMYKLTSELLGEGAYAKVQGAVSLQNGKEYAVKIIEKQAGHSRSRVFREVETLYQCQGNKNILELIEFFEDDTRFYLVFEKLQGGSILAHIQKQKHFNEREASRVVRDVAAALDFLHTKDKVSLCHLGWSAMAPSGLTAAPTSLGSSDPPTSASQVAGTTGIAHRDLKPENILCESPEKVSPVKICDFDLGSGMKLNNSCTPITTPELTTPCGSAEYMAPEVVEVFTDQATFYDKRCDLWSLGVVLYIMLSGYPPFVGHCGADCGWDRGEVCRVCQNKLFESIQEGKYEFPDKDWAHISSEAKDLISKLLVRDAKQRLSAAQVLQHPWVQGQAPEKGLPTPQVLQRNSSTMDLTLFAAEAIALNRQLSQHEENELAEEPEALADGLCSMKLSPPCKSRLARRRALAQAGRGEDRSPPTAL

[24] = molecular target: Mitogen-activated protein kinase kinase kinase 19 (Homo sapiens) (UniProt Q56UN5); assay: Inhibition of partial length wild type human YSK4 expressed in mammalian system assessed as enzyme activity at 1 uM relative to control; set-up: scale not given: the % may be the effect or the level left
[25] = molecular target: Dual specificity protein kinase CLK2 (Homo sapiens) (UniProt P49760); assay: Inhibition of partial length wild type human CLK2 expressed in bacterial system assessed as enzyme activity at 1 uM relative to control; set-up: scale not given: the % may be the effect or the level left
[26] = molecular target: MAP kinase-activated protein kinase 2 (Homo sapiens) (UniProt P49137); assay: Inhibition of partial length wild type human MAPKAPK2 expressed in bacterial system assessed as enzyme activity at 1 uM relative to control; set-up: scale not given: the % may be the effect or the level left
[27] = molecular target: Serine/threonine-protein kinase pim-1 (Homo sapiens) (UniProt P11309); assay: Inhibition of partial length wild type human PIM1 expressed in bacterial system assessed as enzyme activity at 1 uM relative to control; set-up: scale not given: the % may be the effect or the level left
Sequence of Serine/threonine-protein kinase pim-1 (Homo sapiens) (P11309 whole entry, looked up): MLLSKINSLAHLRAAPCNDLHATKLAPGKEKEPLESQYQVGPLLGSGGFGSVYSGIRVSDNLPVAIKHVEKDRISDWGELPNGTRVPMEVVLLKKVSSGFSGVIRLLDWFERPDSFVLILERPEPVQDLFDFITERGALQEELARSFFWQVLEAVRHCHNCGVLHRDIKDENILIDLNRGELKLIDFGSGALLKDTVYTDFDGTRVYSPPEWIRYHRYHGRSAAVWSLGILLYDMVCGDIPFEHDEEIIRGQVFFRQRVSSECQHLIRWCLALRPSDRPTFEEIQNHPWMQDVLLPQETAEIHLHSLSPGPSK

[28] = molecular target: Serine/threonine-protein kinase OSR1 (Homo sapiens) (UniProt O95747); assay: Inhibition of full length wild type human OSR1 expressed in mammalian system assessed as enzyme activity at 1 uM relative to control; set-up: scale not given: the % may be the effect or the level left
[29] = molecular target: Serine/threonine-protein kinase PLK4 (Homo sapiens) (UniProt O00444); assay: Inhibition of partial length wild type human PLK4 expressed in mammalian system assessed as enzyme activity at 1 uM relative to control; set-up: scale not given: the % may be the effect or the level left
[30] = molecular target: Serine/threonine-protein kinase PAK 2 (Homo sapiens) (UniProt Q13177); assay: Inhibition of partial length wild type human PAK2 expressed in bacterial system assessed as enzyme activity at 1 uM relative to control; set-up: scale not given: the % may be the effect or the level left
Sequence of Serine/threonine-protein kinase PAK 2 (Homo sapiens) (Q13177 whole entry): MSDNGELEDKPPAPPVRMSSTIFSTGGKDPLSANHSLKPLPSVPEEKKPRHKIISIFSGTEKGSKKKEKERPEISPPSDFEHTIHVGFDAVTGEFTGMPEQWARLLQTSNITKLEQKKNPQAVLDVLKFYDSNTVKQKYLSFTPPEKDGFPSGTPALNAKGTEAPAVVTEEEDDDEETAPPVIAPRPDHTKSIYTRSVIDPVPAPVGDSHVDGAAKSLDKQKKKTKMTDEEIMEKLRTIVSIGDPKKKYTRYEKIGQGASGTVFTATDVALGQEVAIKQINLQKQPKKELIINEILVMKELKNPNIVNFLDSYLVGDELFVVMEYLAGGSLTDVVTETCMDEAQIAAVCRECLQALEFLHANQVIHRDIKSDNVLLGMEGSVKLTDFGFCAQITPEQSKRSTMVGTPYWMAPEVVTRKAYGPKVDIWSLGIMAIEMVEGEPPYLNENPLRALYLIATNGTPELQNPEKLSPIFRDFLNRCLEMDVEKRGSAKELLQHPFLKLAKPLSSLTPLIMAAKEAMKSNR

[31] = system: RIPK2 (Receptor-interacting serine/threonine-protein kinase 2); assay: Inhibition of partial length wild type human RIPK2 expressed in bacterial system assessed as enzyme activity at 1 uM relative to control; set-up: scale not given: the % may be the effect or the level left

In the case of CN(C)S(=O)(=O)Nc1ccc(F)c(Nc2ncccc2-c2ncnc3[nH]cnc23)c1F, the Activity [1] is reported as 96%, the Activity [2] is reported as 89% and the Activity [3] is reported as 90%. It also gave an Activity [4] of 98%, an Activity [5] of 100% and an Activity [6] of 100%. It also gave an Activity [7] of 96%, an Activity [8] of 92% and an Activity [9] of 100%. For the same compound, the Activity [10] was 99%, the Activity [11] was 100% and the Activity [12] was 100%. For the same compound, the Activity [13] was 73%, the Activity [14] was 88% and the Activity [15] was 100%. It also gave an Activity [16] of 100%, an Activity [17] of 100% and an Activity [18] of 100%. For the same compound, the IC50 [19] was 90 nM, the IC50 [20] was 8 nM and the Activity [21] was 63%. It also gave an Activity [22] of 73%, an Activity [23] of 77% and an Activity [24] of 63%. For the same compound, the Activity [25] was 79%, the Activity [26] was 83% and the Activity [27] was 83%. The Activity [28] was 88%, the Activity [29] was 91% and the Activity [30] was 94%. The Activity [31] was 40%.
